According to article PMC3274548, “Toward New Therapeutics for Skin and Soft Tissue Infections: Propargyl-Linked Antifolates Are Potent Inhibitors of MRSA and Streptococcus pyogenes” (PLoS ONE, 2012):
≈ marks a conversion by molar mass, not a printed value. Like-named read-outs stand apart in the source and are kept apart here.

Tests used:
Streptococcus pyogenes = test: MIC, broth microdilution with Alamar Blue; format: cell-based; conditions: for Selectivity S. pyogenes: IC50 (MCF10)/MIC (pathogen), both values in µM; for MIC: Streptococcus pyogenes
Protocol: (§1) Stock solutions of standard antibiotics and test compounds were made at 50 mM in DMSO. […] For susceptibility testing, 10 µL of glycerol stock was suspended in a 10 mL shake flask culture of chemically defined Isosensitest broth (Oxoid) supplemented with 2% w/v glucose. A sample of the shake flask culture was diluted to 1×10^6 cells/mL in media and added to 96-well test plates (100 µL per well) containing test compounds dispensed in DMSO (2 µL) using serial two-fold dilutions. After an incubation period (30°C) determined from the strain specific doubling time, a 0.03% w/v aqueous solution of resazurin (10 µL) was added and the plates were allowed to incubate; each well was then scored for dye reduction.

MRSA (S.aureus 13709) = test: MIC, broth microdilution with Alamar Blue; format: cell-based, Staphylococcus aureus; conditions: for Selectivity MRSA: IC50 (MCF10)/MIC (pathogen), both values in µM; for MIC: Staphylococcus aureus, MRSA
Protocol: as §1

USA300 CA-MRSA = test: MIC against clinical isolates of MRSA; format: cell-based, Staphylococcus aureus; conditions: Staphylococcus aureus, clinical isolate, read-out: MIC USA300 CA-MRSA
[1] = test system: TMP-SMZ-resistant MRSA strain; test: MIC against clinical isolates of MRSA; format: cell-based; conditions: Staphylococcus aureus, clinical isolate, Table 4, read-out: MIC TMP-SMZ^R
MCF-10 cells = test: Mammalian cell toxicity (Alamar Blue); format: cell-based; conditions: Homo sapiens, MCF10; cytotoxicity, 4 h incubation; read-out: IC50 MCF-10
Protocol: Adherent cell lines were maintained in Eagle's Minimal Essential Media (Sigma-Aldrich, St. Louis, MO, USA) with 2 mM glutamine and Earle's Balanced Salt Solution (HyClone, Logan, UT, USA) adjusted to contain 1.5 g/L sodium bicarbonate, 0.1 mM non-essential amino acids, 1 mM sodium pyruvate and 10% fetal calf serum. Fetal calf serum used in these assays was lot matched throughout. […] Toxicity assays were conducted between passages 10–20. Target compound toxicity was measured by incubating the test compound with the cells for 4 h, washing the cells and finally treating the cells with Alamar Blue. After 12–24 h, the fluorescence of the reduced dye was measured. Fluorescence intensity as a function of test compound concentration was fit to the Fermi equation, using non-linear least squares regression analysis, to estimate IC50 values.

HepG2 cells = test: Mammalian cell toxicity (Alamar Blue); format: cell-based; conditions: Homo sapiens, cytotoxicity, 4 h incubation
Protocol: Fetal calf serum used in these assays was lot matched throughout. All cultures were maintained under a humidified 5% CO2 atmosphere at 37°C, had media refreshed twice weekly and were subcultured by trypsinization and resuspension at a ratio of 1∶5 each week. Toxicity assays were conducted between passages 10–20. Target compound toxicity was measured by incubating the test compound with the cells for 4 h, washing the cells and finally treating the cells with Alamar Blue. After 12–24 h, the fluorescence of the reduced dye was measured. Fluorescence intensity as a function of test compound concentration was fit to the Fermi equation, using non-linear least squares regression analysis, to estimate IC50 values.

HA-MRSA = test: MIC against clinical isolates of MRSA; format: cell-based; conditions: Staphylococcus aureus, clinical isolate, read-out: MIC HA-MRSA
S. pyogenes DHFR = S. pyogenes DHFR (Streptococcus pyogenes, UniProt Q9A091); test: biochemical; format: biochemical; conditions: IC50 (human)/IC50 (pathogen)
Sequence of S. pyogenes DHFR (Q9A091 entry or part of it): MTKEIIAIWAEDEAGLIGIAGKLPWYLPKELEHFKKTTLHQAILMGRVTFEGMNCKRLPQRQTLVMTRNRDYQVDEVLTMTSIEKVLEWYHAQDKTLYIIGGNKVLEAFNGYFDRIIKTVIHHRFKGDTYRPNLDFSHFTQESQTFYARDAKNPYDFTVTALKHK
Protocol: (§2) S. aureus DHFR was cloned, expressed and purified as previously described. Briefly, the DHFR gene was inserted into vector pET41 with a His8 tag for purification. The protein was expressed in E. coli BL21 (DE3) cells. […] The protein was concentrated to ∼5 mg/mL. S. pyogenes DHFR was cloned using PCR from genomic DNA and inserted in vector pET-41.
(§3) Enzyme inhibition assays were performed by monitoring the rate of NADPH oxidation by the DHFR enzyme at an absorbance of 340 nm over five minutes. Assays were performed in the presence of saturating concentrations of NADPH (100 µM) and initiated with dihydrofolate (1 mM). All assays were completed at 25°C in a buffer containing 20 mM TES pH 7.0, 50 mM KCl, 10 mM 2-mercaptoethanol, 0.5 mM EDTA and 1 mg/mL BSA. Inhibition was measured at least three times with inhibitor concentrations near the IC50 value and the average IC50 value is reported with a standard deviation.

S. aureus DHFR = molecular target: T1, S. aureus DHFR (Staphylococcus aureus, UniProt P0A017); test: biochemical; format: biochemical; conditions: for Selectivity (h/Sa): IC50 (human)/IC50 (pathogen)
T1 construct: the DHFR gene was inserted into vector pET41 with a His8 tag for purification; His8; made in house; host or cells: E. coli BL21 (DE3)
T1 sequence (P0A017 whole entry): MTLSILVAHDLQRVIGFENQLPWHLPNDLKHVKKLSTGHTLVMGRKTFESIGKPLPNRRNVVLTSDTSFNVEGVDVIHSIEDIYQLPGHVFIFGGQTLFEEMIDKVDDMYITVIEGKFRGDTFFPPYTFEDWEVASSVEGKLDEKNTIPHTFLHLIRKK
Protocol: as §2, §3

Human DHFR = molecular target: T2, Human DHFR (Homo sapiens, UniProt P00374); test: DHFR enzyme inhibition assay (NADPH oxidation, 340 nm); format: biochemical; conditions: human DHFR; average of at least three measurements; read-out: IC50 (nM) Human
T2 sequence (P00374 1-187): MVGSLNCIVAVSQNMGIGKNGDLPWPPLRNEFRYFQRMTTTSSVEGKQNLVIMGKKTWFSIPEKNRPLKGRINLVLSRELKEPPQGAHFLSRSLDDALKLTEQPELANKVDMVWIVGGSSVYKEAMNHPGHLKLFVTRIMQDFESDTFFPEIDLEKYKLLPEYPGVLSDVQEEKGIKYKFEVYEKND
Protocol: as §3

hVISA Mu3 = test: MIC against clinical isolates of MRSA; format: cell-based; conditions: Staphylococcus aureus; heteroresistant vancomycin intermediate S. aureus; read-out: MIC hVISA Mu3
VISA Mu50 = test: MIC against clinical isolates of MRSA; format: cell-based; conditions: Staphylococcus aureus, read-out: MIC VISA Mu50
USA100 HA-MRSA = test: MIC against clinical isolates of MRSA; format: cell-based; conditions: Staphylococcus aureus, clinical isolate, read-out: MIC USA100 HA-MRSA
[2] = test system: MRSA strain containing the F98Y mutation; conditions: cited from earlier work
[3] = 10% FCS, read-out: MIC S. pyogenes +FCS
[4] = 10% FCS, value in parentheses, read-out: MIC S. pyogenes +FCS
[5] = value in parentheses, read-out: MIC S. pyogenes
[6] = 10% fetal calf serum, read-out: MIC MRSA +FCS
[7] = 10% fetal calf serum, value in parentheses, read-out: MIC MRSA +FCS
[8] = value in parentheses, read-out: MIC MRSA
[9] = S. aureus DHFR, average of at least three measurements, read-out: IC50 (nM) Sa

Row | Compound | Selectivity S. pyogenes (Streptococcus pyogenes) | MIC (Streptococcus pyogenes; [3]) [µg/mL] | MIC (Streptococcus pyogenes; [4]) [µM] | MIC (Streptococcus pyogenes; [5]) [µM] | MIC (Streptococcus pyogenes; read-out: MIC S. pyogenes) [µg/mL] | Selectivity MRSA (MRSA (S.aureus 13709)) | MIC (MRSA (S.aureus 13709); [6]) [µg/mL] | MIC (MRSA (S.aureus 13709); [7]) [µM] | MIC (MRSA (S.aureus 13709); [8]) [µM] | MIC (MRSA (S.aureus 13709); read-out: MIC MRSA) [µg/mL] | MIC (USA300 CA-MRSA; USA300) [µg/mL] | MIC (USA300 CA-MRSA) [µg/mL] | MIC [1] [µg/mL] | IC50 (MCF-10 cells) [nM] | IC50 (HepG2 cells) [nM] | MIC (HA-MRSA) [µg/mL] | Selectivity (h/Sp) (S. pyogenes DHFR) | Selectivity (h/Sa) (S. aureus DHFR) | IC50 (Human DHFR) [nM] | MIC (hVISA Mu3) [µg/mL] | other results
1 | CCc1nc(N)nc(N)c1C#CCc1cc(OC)cc(-c2ccncc2)c1 [Compound 27] | 3,272 | 0.09 | 0.25 | 0.125 | 0.04 | 3,272 | 0.09 | 0.25 | 0.125 | 0.04 | 0.045 (≈ 0.125 µM) | 0.045 (≈ 0.125 µM) | 0.045 (≈ 0.125 µM) | 409000 | 465000 | 0.045 (≈ 0.125 µM) | 2 | 5 | 61 ± 5.7 | 0.045 (≈ 0.125 µM) | IC50 (S. aureus DHFR): 12 ± 2.4 nM; MIC (VISA Mu50): 0.18 µg/mL (≈ 0.501 µM); MIC (USA100 HA-MRSA; USA100): 0.045 µg/mL (≈ 0.125 µM); MIC (USA100 HA-MRSA; first USA100 column): 2.9 µg/mL (≈ 8.07 µM); MIC (USA100 HA-MRSA; third USA100 column): 0.045 µg/mL (≈ 0.125 µM)
2 | CCc1nc(N)nc(N)c1C#CCc1cc(-c2ccncc2)ccc1OC [Compound 26] | 1,736 | 0.09 | 0.25 | 0.125 | 0.04 | 3,391 | 0.09 | 0.25 | 0.064 | 0.02 | 0.08 (≈ 0.223 µM) | 0.08 (≈ 0.223 µM) | 0.04 (≈ 0.111 µM) | 217000 | 199000 | 0.08 (≈ 0.223 µM) | 17 | 16 | 330 ± 12 | 0.04 (≈ 0.111 µM) | IC50 (S. aureus DHFR; [9]): 21 ± 1 nM; MIC (VISA Mu50): 0.04 µg/mL (≈ 0.111 µM); MIC (USA100 HA-MRSA; USA100): 0.08 µg/mL (≈ 0.223 µM); MIC (USA100 HA-MRSA; first USA100 column): 5.3 µg/mL (≈ 14.7 µM); MIC (USA100 HA-MRSA; third USA100 column): 0.04 µg/mL (≈ 0.111 µM)
3 | CCc1nc(N)nc(N)c1C#CCc1cccc(-c2ccncc2)c1 [Compound 28] | 3,800 | 0.09 | 0.25 | 0.125 | 0.04 | 1,900 | 0.16 | 0.5 | 0.25 | 0.08 | 0.045 (≈ 0.137 µM) | 0.045 (≈ 0.137 µM) | 0.045 (≈ 0.137 µM) | 475000 | > 500000 | 0.045 (≈ 0.137 µM) | 17 | 26 | 520 ± 23 | 0.045 (≈ 0.137 µM) | IC50 (S. aureus DHFR; [9]): 20 ± 0.5 nM; MIC (VISA Mu50): 0.09 µg/mL (≈ 0.273 µM); MIC (USA100 HA-MRSA; USA100): 0.045 µg/mL (≈ 0.137 µM); MIC (USA100 HA-MRSA; first USA100 column): 2.9 µg/mL (≈ 8.8 µM); MIC (USA100 HA-MRSA; third USA100 column): 0.045 µg/mL (≈ 0.137 µM)
4 | COc1cc(Cc2cnc(N)nc2N)cc(OC)c1OC [TMP, trimethoprim, reference compound] | – | 0.58 | 2 | 2 | 0.58 | – | – | 0.5 | 0.5 | – | – | – | – | – | – | – | – | – | – | – | MIC MRSA (MRSA (S.aureus 13709)): 0.14 µg/mL (≈ 0.482 µM); MIC MRSA +FCS (MRSA (S.aureus 13709); 10% fetal calf serum): 0.14 µg/mL (≈ 0.482 µM); MIC against the F98Y strain [2]: 16 µg/mL (≈ 55.1 µM)
